Source: patent US8748430B2, “Pyrrolidin-3yl-methylamine quinoxaline derivatives” (Hoffmann-La Roche Inc, priority 2008, dated 2014)

Target: T1, human orexin-2 (hOX2) receptor (Homo sapiens, UniProt O43614)
T1 construct: expressed in transfected cells
T1 sequence (O43614 1-444): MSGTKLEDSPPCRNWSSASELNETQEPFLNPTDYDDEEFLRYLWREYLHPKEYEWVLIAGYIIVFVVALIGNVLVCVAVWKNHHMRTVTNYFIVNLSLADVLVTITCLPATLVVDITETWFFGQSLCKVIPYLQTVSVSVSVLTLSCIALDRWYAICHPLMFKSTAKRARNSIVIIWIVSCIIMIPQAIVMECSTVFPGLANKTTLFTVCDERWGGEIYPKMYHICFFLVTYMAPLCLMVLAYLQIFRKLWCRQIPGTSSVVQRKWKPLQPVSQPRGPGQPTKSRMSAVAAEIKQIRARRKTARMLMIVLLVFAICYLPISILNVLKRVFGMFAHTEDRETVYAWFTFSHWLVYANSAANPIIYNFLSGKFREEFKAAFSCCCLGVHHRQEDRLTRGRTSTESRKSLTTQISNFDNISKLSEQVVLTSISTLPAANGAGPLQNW
Assay: Intracellular Ca2+ mobilization assay (FLIPR), antagonism of orexin-A at EC80
Type: cell-based
Conditions: CHO(dHFr-) cells stably expressing hOX2; orexin-A at EC80 as agonist; antagonist applied 25 min before; Kb=IC50/(1+[A]/EC50); read-out: Kb (μM) OX2R (human)
Description: Intracellular Ca^2+ Mobilization Assay
The Chinese Hamster Ovary (dHFr-) mutant cell line stably expressing human orexin-1 (hOX1) or human orexin-2 (hOX2) receptors were maintained in Dulbecco's Modified Eagle Medium (1×) with GlutaMax™1, 4500 mg/L D-Glucose and Sodium Pyruvate (Catalog No. 31966-021, Invitrogen, Carlsbad, Calif.), 5% dialyzed fetal calf serum (Catalog No. 26400-044), 100 μg/ml penicillin and 100 μg/ml streptomycin. The cells were seeded at 5×10^4 cells/well in the poly-D-lysine treated, 96-well, black/clear-bottomed plates (Catalog No. BD356640, BD Biosciences, Palo Alto, Calif.). 24 h later, the cells were loaded for 1 h at 37° C. with 4 μM Flou-4 acetoxymethyl ester (Catalog No. F-14202, Molecular Probes, Eugene, Oreg.) in FLIPR buffer (1×HBSS, 20 mM HEPES, 2.5 mM Probenecid). Hanks' Balanced Salt Solution (HBSS) (10×) (catalog No. 14065-049) and HEPES (1M) (catalog No. 15630-056) were purchased from Invitrogen, Carlsbad, Calif. Probenecid (250 mM) (catalog No. P8761) was from Sigma, Buchs, Switzerland. The cells were washed five times with FLIPR buffer to remove excess dye and intracellular calcium mobilization, [Ca^2+]i were measured using a Fluorometric Imaging Plate Reader (FLIPR-96, Molecular Devices, Menlo Park, Calif.) as described previously (Malherbe et al., Mol. Pharmacol., 64, 823-832, 2003). Orexin A (catalog No. 1455, Toris Cookson Ltd, Bristol, UK) was used as agonist. Orexin A ([…] stock solution in DMSO) was diluted in FLIPR buffer+0.1% BSA. The EC50 and EC80 values of orexin-A were measured daily from standard agonist concentration-response curves in CHO(dHFr-)-OX1R and -OX2R cell lines. All compounds were dissolved in 100% DMSO. Inhibition curves were determined by addition of 11 concentrations (0.0001-10 μM) of inhibitory compounds and using EC80 value of orexin-A as agonist (a concentration which gave 80% of max agonist response, determined daily). The antagonists were applied 25 min (incubation at 37° C.) before the application of the agonist. Responses were measured as peak increase in fluorescence minus basal, normalized to the maximal stimulatory effect induced by EC80 value of orexin-A or orexin-B. Inhibition curves were fitted according to the Hill equation: y=100/(1+(x/IC50)^nH), where nH=slope factor using Excel-fit 4 software (Microsoft). Kb values were calculated according to the following equation Kb=IC50/(1+[A]/EC50) where A is the concentration of agonist added which is very close to agonist EC80 value, and IC50 and EC50 values were derived from the antagonist inhibition and orexin-A or B agonist curves, respectively.

Structure (SMILES)	Kb [µM]
COc1ccc(C)cc1C(=O)N1CC[C@@H](CNc2nc3cccc(F)c3o2)C1 [Example 25, {(S)-3-[(7-Fluoro-benzooxazol-2-ylamino)-methyl]-pyrrolidin-1-yl}-(2-methoxy-5-methyl-phenyl)-methanone]	0.675
O=C(c1cnoc1-c1ccccc1)N1CC[C@@H](CNc2cnc3cc(Cl)ccc3n2)C1 [Example 30, {(S)-3-[(6-Chloro-quinoxalin-2-ylamino)-methyl]-pyrrolidin-1-yl}-(5-phenyl-isoxazol-4-yl)-methanone]	0.34
Cc1onc(-c2ccccc2)c1C(=O)N1CC[C@@H](CNc2cnc3cc(Cl)ccc3n2)C1 [Example 29, {(S)-3-[(6-Chloro-quinoxalin-2-ylamino)-methyl]-pyrrolidin-1-yl}-(5-methyl-3-phenyl-isoxazol-4-yl)-methanone]	0.407
Cc1ccc(C(F)(F)F)c(C(=O)N2CC[C@@H](CNc3nc4cccc(F)c4o3)C2)c1 [Example 21, {(S)-3-[(7-Fluoro-benzooxazol-2-ylamino)-methyl]-pyrrolidin-1-yl}-(5-methyl-2-trifluoromethyl-phenyl)-methanone]	0.396
O=C(c1cnoc1-c1ccccc1)N1CC[C@@H](CNc2nc3cccc(F)c3o2)C1 [Example 23, {(S)-3-[(7-Fluoro-benzooxazol-2-ylamino)-methyl]-pyrrolidin-1-yl}-(5-phenyl-isoxazol-4-yl)-methanone]	0.123
O=C(c1ccccc1OC(F)(F)F)N1CC[C@@H](CNc2cnc3cc(Cl)ccc3n2)C1 [Example 26, {(S)-3-[(6-Chloro-quinoxalin-2-ylamino)-methyl]-pyrrolidin-1-yl}-(2-trifluoromethoxy-phenyl)-methanone]	0.178
Cc1ccc(C(F)(F)F)c(C(=O)N2CC[C@@H](CNc3nc4ccc(F)cc4s3)C2)c1 [Example 6, {(S)-3-[(6-Fluoro-benzothiazol-2-ylamino)-methyl]-pyrrolidin-1-yl}-(5-methyl-2-trifluoromethyl-phenyl)-methanone]	0.115
O=C(c1ccccc1OC(F)(F)C(F)F)N1CC[C@@H](CNc2nc3ccc(F)cc3s2)C1 [Example 5, {(S)-3-[(6-Fluoro-benzothiazol-2-ylamino)-methyl]-pyrrolidin-1-yl}-[2-(1,1,2,2-tetrafluoro-ethoxy)-phenyl]-methanone]	0.0318
Cc1onc(-c2ccccc2)c1C(=O)N1CC[C@@H](CNc2nc3ccc(Cl)cc3o2)C1 [Example 15, {(S)-3-[(6-Chloro-benzooxazol-2-ylamino)-methyl]-pyrrolidin-1-yl}-(5-methyl-3-phenyl-isoxazol-4-yl)-methanone]	0.0819
COc1cccc(OC)c1C(=O)N1CCC(CNc2nc3ccc(Cl)cc3o2)C1 (centres unmarked) [Example 1, {3-[(6-Chloro-benzooxazol-2-ylamino)-methyl]-pyrrolidin-1-yl}-(2,6-dimethoxy-phenyl)-methanone]	0.0292
Cc1ccc(Cl)c(C(=O)N2CC[C@@H](CNc3nc4cccc(F)c4o3)C2)c1 [Example 24, (2-Chloro-5-methyl-phenyl)-{(S)-3-[(7-fluoro-benzooxazol-2-ylamino)-methyl]-pyrrolidin-1-yl}-methanone]	0.754
O=C(c1cnoc1-c1ccccc1)N1CC[C@@H](CNc2nc3ccc(F)cc3s2)C1 [Example 8, {(S)-3-[(6-Fluoro-benzothiazol-2-ylamino)-methyl]-pyrrolidin-1-yl}-(5-phenyl-isoxazol-4-yl)-methanone]	0.0829
COc1ccc(C)cc1C(=O)N1CC[C@@H](CNc2nc3ccc(Cl)cc3o2)C1 [Example 18, {(S)-3-[(6-Chloro-benzooxazol-2-ylamino)-methyl]-pyrrolidin-1-yl}-(2-methoxy-5-methyl-phenyl)-methanone]	0.355
Cc1ccc(Cl)c(C(=O)N2CC[C@@H](CNc3cnc4cc(Cl)ccc4n3)C2)c1 [Example 31, (2-Chloro-5-methyl-phenyl)-{(S)-3-[(6-chloro-quinoxalin-2-ylamino)-methyl]-pyrrolidin-1-yl}-methanone]	0.539
O=C(c1ccccc1OC(F)(F)F)N1CC[C@@H](CNc2nc3cccc(F)c3o2)C1 [Example 19, {(S)-3-[(7-Fluoro-benzooxazol-2-ylamino)-methyl]-pyrrolidin-1-yl}-(2-trifluoromethoxy-phenyl)-methanone]	0.69
O=C(c1ccccc1C(F)(F)F)N1CC[C@@H](CNc2nc3ccc(F)cc3s2)C1 [Example 3, {(S)-3-[(6-Fluoro-benzothiazol-2-ylamino)-methyl]-pyrrolidin-1-yl}-(2-trifluoromethyl-phenyl)-methanone]	0.207
Cc1ccc(C(F)(F)F)c(C(=O)N2CC[C@@H](CNc3cnc4cc(Cl)ccc4n3)C2)c1 [Example 28, {(S)-3-[(6-Chloro-quinoxalin-2-ylamino)-methyl]-pyrrolidin-1-yl}-(5-methyl-2-trifluoromethyl-phenyl)-methanone]	0.331
COc1cccc(OC)c1C(=O)N1CC[C@@H](CNc2nc3ccc(Cl)cc3o2)C1 [Example 2, {(S)-3-[(6-Chloro-benzooxazol-2-ylamino)-methyl]-pyrrolidin-1-yl}-(2,6-dimethoxy-phenyl)-methanone]	0.0573
O=C(c1cnoc1-c1ccccc1)N1CC[C@@H](CNc2nc3ccc(Cl)cc3o2)C1 [Example 16, {(S)-3-[(6-Chloro-benzooxazol-2-ylamino)-methyl]-pyrrolidin-1-yl}-(5-phenyl-isoxazol-4-yl)-methanone]	0.147
Cc1onc(-c2ccccc2)c1C(=O)N1CC[C@@H](CNc2nc3cccc(F)c3o2)C1 [Example 22, {(S)-3-[(7-Fluoro-benzooxazol-2-ylamino)-methyl]-pyrrolidin-1-yl}-(5-methyl-3-phenyl-isoxazol-4-yl)-methanone]	0.0566
COc1ccc(C)cc1C(=O)N1CC[C@@H](CNc2cnc3cc(Cl)ccc3n2)C1 [Example 32, {(S)-3-[(6-Chloro-quinoxalin-2-ylamino)-methyl]-pyrrolidin-1-yl}-(2-methoxy-5-methyl-phenyl)-methanone]	0.185
O=C(c1ccccc1OC(F)(F)C(F)F)N1CC[C@@H](CNc2nc3ccc(Cl)cc3o2)C1 [Example 13, {(S)-3-[(6-Chloro-benzooxazol-2-ylamino)-methyl]-pyrrolidin-1-yl}-[2-(1,1,2,2-tetrafluoro-ethoxy)-phenyl]-methanone]	0.149
O=C(c1ccccc1OC(F)(F)C(F)F)N1CC[C@@H](CNc2nc3cccc(F)c3o2)C1 [Example 20, {(S)-3-[(7-Fluoro-benzooxazol-2-ylamino)-methyl]-pyrrolidin-1-yl}-[2-(1,1,2,2-tetrafluoro-ethoxy)-phenyl]-methanone]	0.0772
O=C(c1ccccc1OC(F)(F)F)N1CC[C@@H](CNc2nc3ccc(F)cc3s2)C1 [Example 4, {(S)-3-[(6-Fluoro-benzothiazol-2-ylamino)-methyl]-pyrrolidin-1-yl}-(2-trifluoromethoxy-phenyl)-methanone]	0.129
Cc1ccc(Cl)c(C(=O)N2CC[C@@H](CNc3nc4ccc(Cl)cc4o3)C2)c1 [Example 17, {(S)-3-[(6-Chloro-benzooxazol-2-ylamino)-methyl]-pyrrolidin-1-yl}-(2-chloro-5-methyl-phenyl)-methanone]	0.565
O=C(c1ccccc1OC(F)(F)F)N1CC[C@@H](CNc2nc3ccc(Cl)cc3o2)C1 [Example 12, {(S)-3-[(6-Chloro-benzooxazol-2-ylamino)-methyl]-pyrrolidin-1-yl}-(2-trifluoromethoxy-phenyl)-methanone]	0.214
